Molecular target: T1, TbAUK1 (recombinant GST-tagged TbAUK1) (Trypanosoma brucei, UniProt Q384J7)
T1 construct: gene AUK1; no tag cleavage mentioned; tested without TbCPC1/TbCPC2
T1 sequence (Q384J7 1-309): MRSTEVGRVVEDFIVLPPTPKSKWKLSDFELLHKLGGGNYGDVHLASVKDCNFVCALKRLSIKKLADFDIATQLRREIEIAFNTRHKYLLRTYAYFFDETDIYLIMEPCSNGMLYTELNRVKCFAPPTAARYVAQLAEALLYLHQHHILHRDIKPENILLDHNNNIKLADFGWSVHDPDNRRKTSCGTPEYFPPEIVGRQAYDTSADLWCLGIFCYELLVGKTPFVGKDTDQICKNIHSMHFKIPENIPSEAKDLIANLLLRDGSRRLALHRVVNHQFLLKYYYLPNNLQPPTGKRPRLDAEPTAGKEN
Assay: in vitro kinase assay, […] phosphorylation of GST-histone H3, SDS-PAGE and Phosphor-Imager
Format: biochemical

## Cc1cc(Nc2cc(N3CCN(C)CC3)nc(Sc3ccc(NC(=O)C4CC4)cc3)n2)[nH]n1 [VX-680]
  IC50: 0.19 µM
